From ChEMBL document CHEMBL1909046, “DrugMatrix in vitro pharmacology data”

Experiments:
[1] = DRUGMATRIX: GABAA, Muscimol, Central radioligand binding (ligand: [3H] Muscimol); assay type: cell membranes, Rattus norvegicus, Wistar, Brain, Membrane; conditions: Not Active = under 50% inhibition at 10 µM
[2] = biological target: 5-hydroxytryptamine receptor 4 (Cavia porcellus, UniProt O70528); assay type: cell membranes, Dunkin-Hartley, Striatum, Membrane; also: in other assays of this panel Not Active means under 50% inhibition at 10 µM
Sequence of 5-hydroxytryptamine receptor 4 (O70528 whole entry): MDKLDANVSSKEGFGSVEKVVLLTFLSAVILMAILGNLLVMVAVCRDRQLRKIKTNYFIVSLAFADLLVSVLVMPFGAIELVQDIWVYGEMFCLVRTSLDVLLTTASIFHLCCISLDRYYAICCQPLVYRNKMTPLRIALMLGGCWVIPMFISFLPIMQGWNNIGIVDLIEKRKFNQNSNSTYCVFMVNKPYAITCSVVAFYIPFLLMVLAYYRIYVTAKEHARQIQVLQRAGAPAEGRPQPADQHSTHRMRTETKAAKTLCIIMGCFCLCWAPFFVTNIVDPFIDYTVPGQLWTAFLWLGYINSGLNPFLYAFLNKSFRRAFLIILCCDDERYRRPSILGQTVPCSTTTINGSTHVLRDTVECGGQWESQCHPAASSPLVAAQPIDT

[3] = biological target: Mitogen-activated protein kinase 1 (Homo sapiens, UniProt P28482); experiment: DRUGMATRIX: Protein Serine/Threonine Kinase, ERK2 enzyme inhibition (substrate: Myelin Basic Protein); parameters: species or system Escherichia coli; conditions: Not Active = under 50% inhibition at 10 µM
Sequence of Mitogen-activated protein kinase 1 (P28482 whole entry): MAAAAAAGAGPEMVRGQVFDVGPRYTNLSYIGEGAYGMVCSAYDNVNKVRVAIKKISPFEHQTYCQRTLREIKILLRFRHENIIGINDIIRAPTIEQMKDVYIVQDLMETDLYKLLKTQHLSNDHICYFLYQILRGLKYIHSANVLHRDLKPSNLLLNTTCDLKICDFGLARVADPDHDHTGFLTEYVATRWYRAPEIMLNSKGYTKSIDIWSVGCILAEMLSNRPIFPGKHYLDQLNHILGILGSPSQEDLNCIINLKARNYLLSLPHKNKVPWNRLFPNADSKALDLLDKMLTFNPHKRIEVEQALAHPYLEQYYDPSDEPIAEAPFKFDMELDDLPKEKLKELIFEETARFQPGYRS

[4] = biological target: T1, Muscarinic acetylcholine receptor M4 (Homo sapiens, UniProt P08173); assay type: cell membranes, CHO-K1, Membrane; conditions: cho-k1; also: in other assays of this panel Not Active means under 50% inhibition at 10 µM
T1 sequence (P08173 whole entry): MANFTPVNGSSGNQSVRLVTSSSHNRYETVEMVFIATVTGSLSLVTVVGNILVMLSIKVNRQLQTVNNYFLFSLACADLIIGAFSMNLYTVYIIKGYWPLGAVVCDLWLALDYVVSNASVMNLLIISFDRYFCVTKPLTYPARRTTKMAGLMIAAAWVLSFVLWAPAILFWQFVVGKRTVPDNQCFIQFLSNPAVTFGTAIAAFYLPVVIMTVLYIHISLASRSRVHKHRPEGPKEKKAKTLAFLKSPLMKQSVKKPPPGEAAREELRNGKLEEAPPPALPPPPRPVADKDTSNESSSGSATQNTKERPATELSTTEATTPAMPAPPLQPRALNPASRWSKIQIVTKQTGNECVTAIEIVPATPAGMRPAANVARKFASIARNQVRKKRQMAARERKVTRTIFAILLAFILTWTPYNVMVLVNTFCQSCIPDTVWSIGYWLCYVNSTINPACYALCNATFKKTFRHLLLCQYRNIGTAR

[5] = DRUGMATRIX: Sigma2 radioligand binding (ligand: [3H] Ifenprodil); assay type: cell membranes, Rattus norvegicus, Wistar, Brain, Membrane; conditions: Not Active = under 50% inhibition at 10 µM
[6] = biological target: T2, Neutrophil elastase (Homo sapiens, UniProt P08246); assay type: tissue-based;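 also: inhibition of neutrophil elastase enzyme activity, measured with a p-nitroanilide-linked peptide substrate; in other assays of this panel Not Active means under 50% inhibition at 10 µM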
T2 sequence (P08246 whole entry): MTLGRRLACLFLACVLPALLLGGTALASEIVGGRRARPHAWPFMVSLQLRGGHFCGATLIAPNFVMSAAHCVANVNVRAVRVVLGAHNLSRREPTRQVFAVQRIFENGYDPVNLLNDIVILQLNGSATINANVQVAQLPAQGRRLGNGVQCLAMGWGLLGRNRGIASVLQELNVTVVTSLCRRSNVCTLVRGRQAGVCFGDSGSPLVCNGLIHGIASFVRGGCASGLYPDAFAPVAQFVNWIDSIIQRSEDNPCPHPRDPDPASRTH

[7] = biological target: Sodium-dependent dopamine transporter (Homo sapiens, UniProt Q01959); experiment: DRUGMATRIX: Dopamine Transporter radioligand binding (ligand: [125I] RTI-55); assay type: cell membranes, CHO-K1, Membrane; conditions: Not Active = under 50% inhibition at 10 µM
Sequence of Sodium-dependent dopamine transporter (Q01959 whole entry): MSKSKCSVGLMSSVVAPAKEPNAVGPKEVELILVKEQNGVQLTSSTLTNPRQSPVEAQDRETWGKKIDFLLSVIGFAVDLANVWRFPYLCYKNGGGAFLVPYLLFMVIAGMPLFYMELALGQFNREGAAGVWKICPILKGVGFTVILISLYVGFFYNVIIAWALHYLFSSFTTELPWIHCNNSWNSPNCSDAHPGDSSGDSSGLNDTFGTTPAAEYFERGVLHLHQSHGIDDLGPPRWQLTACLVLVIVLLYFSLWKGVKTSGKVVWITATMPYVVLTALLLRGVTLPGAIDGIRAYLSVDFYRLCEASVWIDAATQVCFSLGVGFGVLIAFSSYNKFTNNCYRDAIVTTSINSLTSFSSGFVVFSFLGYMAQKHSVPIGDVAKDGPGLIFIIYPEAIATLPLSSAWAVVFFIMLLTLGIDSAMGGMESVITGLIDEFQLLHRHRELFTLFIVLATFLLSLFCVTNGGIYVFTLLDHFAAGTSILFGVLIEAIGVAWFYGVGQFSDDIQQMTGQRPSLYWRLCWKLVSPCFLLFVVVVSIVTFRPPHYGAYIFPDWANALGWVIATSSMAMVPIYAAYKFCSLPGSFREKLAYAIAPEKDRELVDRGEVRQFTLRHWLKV

[8] = biological target: cGMP-specific 3',5'-cyclic phosphodiesterase (Homo sapiens, UniProt O76074); experiment: DRUGMATRIX: Phosphodiesterase PDE5 enzyme inhibition (substrate: [3H]cGMP + cGMP); assay type: tissue-based, Platelet; conditions: platelet; Not Active = under 50% inhibition at 10 µM
[9] = DRUGMATRIX: Serotonin (5-Hydroxytryptamine) 5-HT3 radioligand binding (ligand: [3H] GR-65630); assay type: cell membranes, Membrane; conditions: hek293, Not Active = under 50% inhibition at 10 µM
[10] = biological target: D(1A) dopamine receptor (Homo sapiens, UniProt P21728); experiment: DRUGMATRIX: Dopamine D1 radioligand binding (ligand: [3H] SCH-23390); assay type: cell membranes, CHO, Membrane; conditions: cho; Not Active = under 50% inhibition at 10 µM
Sequence of D(1A) dopamine receptor (P21728 whole entry): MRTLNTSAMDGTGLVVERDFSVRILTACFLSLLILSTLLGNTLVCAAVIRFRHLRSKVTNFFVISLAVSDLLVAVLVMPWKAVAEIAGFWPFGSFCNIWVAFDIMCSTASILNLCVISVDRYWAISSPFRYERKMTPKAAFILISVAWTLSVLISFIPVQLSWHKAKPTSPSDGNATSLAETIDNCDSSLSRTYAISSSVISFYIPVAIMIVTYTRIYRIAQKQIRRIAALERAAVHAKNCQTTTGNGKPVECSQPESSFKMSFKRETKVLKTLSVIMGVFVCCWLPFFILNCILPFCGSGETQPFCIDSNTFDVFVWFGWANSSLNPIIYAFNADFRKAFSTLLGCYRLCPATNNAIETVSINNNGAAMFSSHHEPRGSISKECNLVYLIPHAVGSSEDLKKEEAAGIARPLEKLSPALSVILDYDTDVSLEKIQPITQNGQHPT

[11] = DRUGMATRIX: Glutamate, AMPA radioligand binding (ligand: [3H] AMPA); assay type: cell membranes, Rattus norvegicus, Wistar, Cerebral cortex, Membrane; conditions: Not Active = under 50% inhibition at 10 µM
[12] = biological target: Insulin receptor (Rattus norvegicus, UniProt P15127); assay type: cell membranes, Wistar, Liver, Membrane; also: in other assays of this panel Not Active means under 50% inhibition at 10 µM
Sequence of Insulin receptor (P15127 27-759 limits assumed): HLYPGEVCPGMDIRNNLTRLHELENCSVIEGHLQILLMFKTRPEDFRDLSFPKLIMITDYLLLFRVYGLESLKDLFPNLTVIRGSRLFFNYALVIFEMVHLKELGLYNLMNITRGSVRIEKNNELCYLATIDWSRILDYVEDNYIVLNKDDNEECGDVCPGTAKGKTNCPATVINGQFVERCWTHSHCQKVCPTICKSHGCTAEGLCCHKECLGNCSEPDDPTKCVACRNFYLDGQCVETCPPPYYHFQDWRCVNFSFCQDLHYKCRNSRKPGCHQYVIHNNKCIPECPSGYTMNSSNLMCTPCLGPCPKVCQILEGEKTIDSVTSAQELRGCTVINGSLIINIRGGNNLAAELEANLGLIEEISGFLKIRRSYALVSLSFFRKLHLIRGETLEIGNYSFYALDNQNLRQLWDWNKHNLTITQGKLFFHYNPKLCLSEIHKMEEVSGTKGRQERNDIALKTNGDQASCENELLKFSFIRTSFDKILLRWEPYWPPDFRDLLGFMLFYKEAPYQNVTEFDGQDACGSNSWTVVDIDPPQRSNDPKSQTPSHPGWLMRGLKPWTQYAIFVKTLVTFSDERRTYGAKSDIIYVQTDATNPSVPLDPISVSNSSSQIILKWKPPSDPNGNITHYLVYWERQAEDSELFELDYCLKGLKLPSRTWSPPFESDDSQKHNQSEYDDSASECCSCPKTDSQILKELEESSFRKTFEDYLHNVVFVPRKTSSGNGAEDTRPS
Sequence of Insulin receptor (P15127 764-1383 limits assumed): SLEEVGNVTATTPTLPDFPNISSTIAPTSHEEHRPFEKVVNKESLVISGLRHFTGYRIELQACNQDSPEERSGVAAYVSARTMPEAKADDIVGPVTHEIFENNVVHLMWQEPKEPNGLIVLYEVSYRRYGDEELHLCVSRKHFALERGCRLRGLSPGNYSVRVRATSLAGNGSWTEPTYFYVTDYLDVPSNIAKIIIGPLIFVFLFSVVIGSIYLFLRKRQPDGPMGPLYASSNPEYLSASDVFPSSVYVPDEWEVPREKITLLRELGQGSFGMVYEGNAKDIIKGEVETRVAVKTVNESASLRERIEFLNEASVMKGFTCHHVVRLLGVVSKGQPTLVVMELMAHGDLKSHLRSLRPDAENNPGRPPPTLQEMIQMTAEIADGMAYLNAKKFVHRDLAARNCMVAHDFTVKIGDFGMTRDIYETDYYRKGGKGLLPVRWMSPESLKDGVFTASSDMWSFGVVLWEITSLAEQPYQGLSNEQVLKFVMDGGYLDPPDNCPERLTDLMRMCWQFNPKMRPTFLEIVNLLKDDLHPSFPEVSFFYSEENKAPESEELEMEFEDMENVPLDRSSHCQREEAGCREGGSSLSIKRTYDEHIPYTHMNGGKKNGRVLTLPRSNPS

[13] = biological target: Mitogen-activated protein kinase 14 (Homo sapiens, UniProt Q16539); parameters: species or system Escherichia coli
Sequence of Mitogen-activated protein kinase 14 (Q16539 whole entry): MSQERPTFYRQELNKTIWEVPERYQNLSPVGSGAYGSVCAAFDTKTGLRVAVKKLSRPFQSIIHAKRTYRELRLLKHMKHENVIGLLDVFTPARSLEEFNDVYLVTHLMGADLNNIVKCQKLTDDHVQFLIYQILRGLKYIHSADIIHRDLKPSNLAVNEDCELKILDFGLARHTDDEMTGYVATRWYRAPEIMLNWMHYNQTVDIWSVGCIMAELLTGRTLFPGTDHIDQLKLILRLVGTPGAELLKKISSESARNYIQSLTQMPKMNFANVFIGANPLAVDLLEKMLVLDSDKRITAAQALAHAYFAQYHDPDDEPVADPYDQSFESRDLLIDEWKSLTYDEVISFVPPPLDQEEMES

[14] = DRUGMATRIX: Sodium/nucleoside co-transporter radioligand binding (ligand: nitrobenzylthioinosine); assay type: cell membranes, Cavia porcellus, Dunkin-Hartley, Cerebral cortex, Membrane; conditions: Not Active = under 50% inhibition at 10 µM
[15] = DRUGMATRIX: Glutamate, NMDA, Phencyclidine radioligand binding (ligand: [3H] TCP); assay type: cell membranes, Rattus norvegicus, Wistar, Cerebral cortex, Membrane; conditions: Not Active = under 50% inhibition at 10 µM
[16] = biological target: T3, C-X-C chemokine receptor type 1 (Homo sapiens, UniProt P25024); also: in other assays of this panel Not Active means under 50% inhibition at 10 µM
T3 sequence (P25024 whole entry): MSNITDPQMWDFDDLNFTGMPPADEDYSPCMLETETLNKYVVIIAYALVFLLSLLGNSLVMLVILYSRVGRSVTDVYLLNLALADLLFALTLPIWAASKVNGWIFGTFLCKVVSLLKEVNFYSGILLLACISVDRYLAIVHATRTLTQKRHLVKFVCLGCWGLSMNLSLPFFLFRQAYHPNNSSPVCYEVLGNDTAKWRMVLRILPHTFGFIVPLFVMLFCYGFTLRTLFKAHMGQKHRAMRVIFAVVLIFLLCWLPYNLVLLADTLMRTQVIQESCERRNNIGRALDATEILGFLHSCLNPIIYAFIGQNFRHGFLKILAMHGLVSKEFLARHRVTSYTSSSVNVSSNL

[17] = biological target: T4, Calcitonin receptor (Homo sapiens, UniProt P30988); assay type: cell membranes, Membrane; conditions: t47d; also: in other assays of this panel Not Active means under 50% inhibition at 10 µM
T4 sequence (P30988 whole entry): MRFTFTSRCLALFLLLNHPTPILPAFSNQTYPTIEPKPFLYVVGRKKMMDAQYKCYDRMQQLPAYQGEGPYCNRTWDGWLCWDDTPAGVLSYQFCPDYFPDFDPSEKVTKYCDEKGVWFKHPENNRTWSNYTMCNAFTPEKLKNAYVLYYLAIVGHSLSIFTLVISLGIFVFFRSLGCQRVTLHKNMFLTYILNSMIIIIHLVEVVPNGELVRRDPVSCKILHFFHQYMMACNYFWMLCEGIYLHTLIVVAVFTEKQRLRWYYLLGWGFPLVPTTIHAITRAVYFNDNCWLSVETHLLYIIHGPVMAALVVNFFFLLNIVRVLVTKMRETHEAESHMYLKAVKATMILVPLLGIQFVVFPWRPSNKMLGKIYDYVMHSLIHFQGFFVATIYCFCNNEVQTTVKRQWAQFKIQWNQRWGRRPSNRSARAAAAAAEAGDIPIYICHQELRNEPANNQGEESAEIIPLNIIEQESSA

[18] = biological target: Tyrosine-protein kinase Fyn (Homo sapiens, UniProt P06241); experiment: biochemical; assay type: cell-based, Insect cells; conditions: insect cells
Sequence of Tyrosine-protein kinase Fyn (P06241 whole entry): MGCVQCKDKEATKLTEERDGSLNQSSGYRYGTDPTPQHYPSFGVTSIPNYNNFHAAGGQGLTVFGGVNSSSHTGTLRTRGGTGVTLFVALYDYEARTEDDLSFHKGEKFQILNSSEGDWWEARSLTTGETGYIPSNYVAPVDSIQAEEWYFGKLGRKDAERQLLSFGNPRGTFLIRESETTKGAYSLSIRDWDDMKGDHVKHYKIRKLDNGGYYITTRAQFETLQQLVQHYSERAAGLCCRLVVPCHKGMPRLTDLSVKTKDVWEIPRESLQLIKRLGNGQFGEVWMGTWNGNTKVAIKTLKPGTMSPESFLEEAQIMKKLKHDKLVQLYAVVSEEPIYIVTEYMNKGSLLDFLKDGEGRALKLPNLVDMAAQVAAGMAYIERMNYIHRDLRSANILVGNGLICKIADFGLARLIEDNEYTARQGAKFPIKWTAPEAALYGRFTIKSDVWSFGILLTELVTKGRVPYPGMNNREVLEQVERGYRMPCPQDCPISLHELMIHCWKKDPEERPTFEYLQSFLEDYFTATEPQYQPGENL

[19] = biological target: Protein phosphatase 3 catalytic subunit alpha (Homo sapiens, UniProt Q08209); parameters: species or system Escherichia coli
[20] = DRUGMATRIX: Phorbol Ester radioligand binding (ligand: [3H] PDBu); assay type: cell membranes, Mus musculus, ICR, Brain, Membrane; conditions: Not Active = under 50% inhibition at 10 µM

SMILES	IC50 [1]	IC50 [3]	IC50 [4]	IC50 [6]	IC50 [8]	IC50 [10]	IC50 [11]	Ki [11]	IC50 [12]	IC50 [13]	IC50 [14]	Ki [14]	IC50 [15]	Ki [15]	IC50 [16]	IC50 [17]	IC50 [18]	IC50 [19]	IC50 [20]	Ki [20]	other results
CC1CN(c2cc3c(cc2F)c(=O)c(C(=O)O)cn3-c2ccc(F)cc2F)CCN1 (configuration not stated) [TEMAFLOXACIN]	Not Active	Not Active	Not Active	Not Active	Not Active	Not Active	Not Active	Not Active	Not Active	Not Active	Not Active	Not Active	Not Active	Not Active	Not Active	Not Active	Not Active	Not Active	Not Active	Not Active	Ki [1]: Not Active; IC50 [2]: Not Active; IC50 [5]: Not Active; Ki [5]: Not Active; IC50 ([7]; cho-k1): Not Active; IC50 [9]: Not Active; Ki [9]: Not Active
CC1(C)[C@H]2CC[C@]1(C)C(=O)C2 [(-)-CAMPHOR]	Not Active	Not Active	Not Active	Not Active	Not Active	Not Active	Not Active	Not Active	Not Active	Not Active	Not Active	Not Active	Not Active	Not Active	Not Active	Not Active	Not Active	Not Active	Not Active	Not Active	Ki [1]: Not Active; IC50 [2]: Not Active; IC50 [5]: Not Active; Ki [5]: Not Active; IC50 ([7]; cho-k1): Not Active; IC50 [9]: Not Active; Ki [9]: Not Active
CC(CCc1ccccc1)NCC(O)c1ccc(O)c(C(N)=O)c1 (configuration not stated) [LABETALOL]	Not Active	Not Active	Not Active	Not Active	Not Active	Not Active	Not Active	Not Active	Not Active	Not Active	Not Active	Not Active	Not Active	Not Active	Not Active	Not Active	Not Active	Not Active	Not Active	Not Active	Ki [1]: Not Active; IC50 [2]: Not Active; IC50 ([5]; read-out: IC50): 2.82 µM; Ki ([5]; read-out: Ki): 1.73 µM; IC50 ([7]; read-out: IC50): 1.61 µM; Ki ([7]; read-out: Ki): 1.28 µM; IC50 [9]: Not Active; Ki [9]: Not Active
CN1[C@@H]2CC[C@H]1C[C@@H](OC(=O)c1c[nH]c3ccccc13)C2 [TROPISETRON]		Not Active	Not Active	Not Active	Not Active	Not Active	Not Active	Not Active	Not Active	Not Active	Not Active	Not Active	Not Active	Not Active	Not Active	Not Active	Not Active	Not Active	Not Active	Not Active	IC50 ([1]; read-out: IC50): 3.02 µM; Ki ([1]; read-out: Ki): 2.4 µM; IC50 ([2]; read-out: IC50): 0.324 µM; Ki ([2]; read-out: Ki): 0.054 µM; IC50 [5]: Not Active; Ki [5]: Not Active; IC50 ([7]; cho-k1): Not Active; IC50 ([9]; read-out: IC50): 0.00676 µM; Ki ([9]; read-out: Ki): 0.00152 µM
NC(=O)c1ncn([C@@H]2O[C@H](CO)[C@@H](O)[C@H]2O)n1 [RIBAVIRIN]	Not Active	Not Active	Not Active	Not Active	Not Active	Not Active	Not Active	Not Active	Not Active	Not Active	Not Active	Not Active	Not Active	Not Active	Not Active	Not Active	Not Active	Not Active	Not Active	Not Active	Ki [1]: Not Active; IC50 [2]: Not Active; IC50 [5]: Not Active; Ki [5]: Not Active; IC50 ([7]; cho-k1): Not Active; IC50 [9]: Not Active; Ki [9]: Not Active
